Counter-ions that a name gives are not always drawn. Like-named read-outs stand apart in the source and are kept apart here.
Columns and labels:
[1] = target: T1, recombinant human adrenergic beta 1 receptors (Homo sapiens, UniProt P08588); assay: Adrenergic β1 selectivity assay, [125I]-Iodocyanopindolol binding to membranes; conditions: inhibition of [125I]-Iodocyanopindolol binding, read-out: β1 pEC50 (converted)
T1 construct: purchased Euroscreen
Procedure: Membranes containing recombinant human adrenergic beta 1 receptors were obtained from Euroscreen. These were diluted in Assay Buffer (50 mM HEPES, 1 mM EDTA, 120 mM NaCl, 0.1% gelatin, pH 7.4) to provide a final concentration of membranes that gave a clear window between maximum and minimum specific binding.
(§1) Assays were performed in U-bottomed 96-well polypropylene plates. 10 μL [^125I]-Iodocyanopindolol (0.036 nM final concentration) and 10 μL of test compound (10× final concentration) were added to each test well. For each assay plate 8 replicates were obtained for [^125I]-Iodocyanopindolol binding in the presence of 10 μL vehicle (10% (v/v) DMSO in Assay Buffer; defining maximum binding) or 10 μL Propranolol (10 μM final concentration; defining non-specific binding (NSB)). Membranes were then added to achieve a final volume of 100 μL. The plates were incubated for 2 hours at room temperature and then filtered onto PEI coated GF/B filter plates, pre-soaked for 1 hour in Assay Buffer, using a 96-well plate Tomtec cell harvester. Five washes with 250 μL wash buffer (50 mM HEPES, 1 mM EDTA, 120 mM NaCl, pH 7.4) were performed at 4° C. to remove unbound radioactivity. The plates were dried then sealed from underneath using Packard plate sealers and MicroScint-O (50 μL) was added to each well. The plates were sealed (TopSeal A) and filter-bound radioactivity was measured with a scintillation counter (TopCount, Packard BioScience) using a 3-minute counting protocol.
(§2) Total specific binding (B0) was determined by subtracting the mean NSB from the mean maximum binding. NSB values were also subtracted from values from all other wells.

[2] = target: T2, recombinant human α1D receptor (Homo sapiens, UniProt P25100); assay: Adrenergic α1D selectivity assay, [3H]-prazosin binding to HEK293 membranes; conditions: inhibition of [3H]-prazosin binding, HEK293 membranes with recombinant human α1D; read-out: α1D pEC50 (converted)
T2 construct: expressed in transfected cells; host or cells: HEK293
T2 sequence (P25100 1-572): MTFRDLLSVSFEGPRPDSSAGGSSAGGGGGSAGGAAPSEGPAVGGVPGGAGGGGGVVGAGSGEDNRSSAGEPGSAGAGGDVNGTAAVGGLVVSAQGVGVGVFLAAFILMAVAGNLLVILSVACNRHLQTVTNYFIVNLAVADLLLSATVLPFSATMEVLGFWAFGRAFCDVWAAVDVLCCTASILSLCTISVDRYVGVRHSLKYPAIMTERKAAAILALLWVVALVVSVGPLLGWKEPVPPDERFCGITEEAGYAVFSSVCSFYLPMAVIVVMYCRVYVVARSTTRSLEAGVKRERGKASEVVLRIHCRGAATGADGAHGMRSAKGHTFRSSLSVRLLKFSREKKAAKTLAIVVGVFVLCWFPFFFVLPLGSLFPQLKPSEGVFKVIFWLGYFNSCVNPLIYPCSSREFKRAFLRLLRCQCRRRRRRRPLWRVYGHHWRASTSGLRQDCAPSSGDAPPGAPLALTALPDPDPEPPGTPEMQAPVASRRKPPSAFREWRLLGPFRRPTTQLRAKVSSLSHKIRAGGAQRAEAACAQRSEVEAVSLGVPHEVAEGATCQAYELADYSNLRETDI
Procedure: These were diluted in Assay Buffer (50 mM HEPES, 1 mM EDTA, 0.1% gelatin, pH 7.4) to provide a final concentration of membranes that gave a clear window between maximum and minimum specific binding.
as §1, with “10 μL [^125I]-Iodocyanopindolol (0.036 nM final concentration) and 10 μL of test compound (10× final concentration) were added to each test well.” left out, “[^3H]-prazosin” for “[^125I]-Iodocyanopindolol”, “BMY7378” for “Propranolol”, “EDTA,” for “EDTA, 120 mM NaCl,”
as §2

[3] = target: T3, Adrenergic β2 (Homo sapiens, UniProt P07550); assay: Adrenergic β2 mediated cAMP production in H292 cells (AlphaScreen cAMP detection); format: cell-based
T3 construct: endogenous in cells; host or cells: H292 cells
T3 sequence (P07550 whole entry): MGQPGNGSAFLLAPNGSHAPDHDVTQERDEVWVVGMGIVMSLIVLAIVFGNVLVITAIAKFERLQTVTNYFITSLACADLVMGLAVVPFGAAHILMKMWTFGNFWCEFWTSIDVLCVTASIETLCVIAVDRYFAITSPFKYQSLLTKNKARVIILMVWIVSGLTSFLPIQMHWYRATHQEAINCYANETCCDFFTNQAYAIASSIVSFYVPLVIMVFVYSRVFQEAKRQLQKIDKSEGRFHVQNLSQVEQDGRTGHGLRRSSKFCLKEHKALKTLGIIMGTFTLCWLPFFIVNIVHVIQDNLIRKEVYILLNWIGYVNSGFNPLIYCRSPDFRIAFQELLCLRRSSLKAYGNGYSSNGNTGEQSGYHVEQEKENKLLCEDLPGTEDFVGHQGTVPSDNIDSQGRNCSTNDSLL
Procedure: Adrenergic β2 Mediated cAMP Production
H292 cells were grown in RPMI (Roswell Park Memorial Institute) medium containing, 10% (v/v) FBS (foetal bovine serum) and 2 mM L-glutamine. Cells were grown in 225 cm2 flasks containing 25 mL media in a humidified incubator at 37° C., 5% CO2. Cells were harvested from the flask and passaged at a 1 in 10 dilution once per week.
The media from flasks containing H292 cells was removed, rinsed with 10 mL PBS phosphate buffered saline) and replaced with 10 mL Accutase™ cell detachment solution. Flasks were incubated for 15 minutes in a humidified incubator at 37° C., 5% CO2. The cell suspension was counted and the cells re-suspended in RPMI media (containing 10% (v/v) FBS and 2 mM L-glutamine) at 0.05×10^6 cells per mL. 5000 cells in 100 μL were added to each well of a tissue-culture-treated 96-well plate and the cells incubated overnight in a humidified incubator at 37° C., 5% CO2. The culture media was removed, washed twice with 100 μL assay buffer and replaced with 50 μL assay buffer. Cells were rested at room temperature for 20 minutes after which time 25 μL of rolipram (1.2 mM made up in assay buffer containing 2.4% (v/v) dimethylsulphoxide) was added. Cells were incubated with rolipram for 10 minutes after which time test compounds (made up as ×4 concentrated stocks in assay buffer containing 4% (v/v) dimethylsulphoxide) were added and the cells were incubated for 10 minutes at room temperature. Final rolipram concentration in the assay was 300 μM and final vehicle concentration was 1.6% (v/v) dimethylsulphoxide. The reaction was stopped by removing supernatants, washing once with 100 μL assay buffer and replacing with 50 μL lysis buffer. The cell monolayer was frozen at −80° C. for 30 minutes (or overnight).
The concentration of cAMP (cyclic adenosine monophosphate) in the cell lysate was determined using the AlphaScreen™ methodology. The frozen cell plate was thawed for 20 minutes on a plate shaker then 10 μL of the cell lysate was transferred to a 96-well white plate. 40 μL of mixed AlphaScreen™ detection beads (containing equal volumes of donor beads (pre-incubated with biotinylated cAMP in the dark for 30 minutes) and acceptor beads), was added to each well and the plate incubated at room temperature for 10 hours in the dark. The AlphaScreen™ signal was measured using an EnVision spectrophotometer (Perkin-Elmer Inc.) with the recommended manufacturer's settings. cAMP concentrations were determined by reference to a calibration curve determined in the same experiment using standard cAMP concentrations (made up in lysis buffer in a 96-well tissue-culture-treated plate and frozen/thawed alongside the test samples) and detected using the same protocol. Concentration response curves for agonists were constructed to determine both the pEC50 and Intrinsic Activity.

T1 sequence (P08588 whole entry): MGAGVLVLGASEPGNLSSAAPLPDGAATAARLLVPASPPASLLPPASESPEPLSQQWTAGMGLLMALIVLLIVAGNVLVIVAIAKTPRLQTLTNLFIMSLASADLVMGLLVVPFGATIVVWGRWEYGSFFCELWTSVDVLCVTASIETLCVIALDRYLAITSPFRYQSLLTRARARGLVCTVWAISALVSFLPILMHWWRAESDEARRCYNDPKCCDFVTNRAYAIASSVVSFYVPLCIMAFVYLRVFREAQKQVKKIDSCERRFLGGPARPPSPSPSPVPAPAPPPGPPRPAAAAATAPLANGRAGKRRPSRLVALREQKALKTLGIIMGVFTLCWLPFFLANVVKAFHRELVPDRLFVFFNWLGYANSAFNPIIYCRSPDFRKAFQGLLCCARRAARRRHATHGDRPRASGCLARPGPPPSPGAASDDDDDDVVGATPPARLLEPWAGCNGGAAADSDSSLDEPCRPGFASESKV

Row | Structure (SMILES) | EC50 [1] | EC50 [2] | EC50 ([3]; cAMP production in H292 cells, 300 μM rolipram, 10 minutes with compound, read-out: β2 pEC50 (converted)) | Intrinsic Activity ([3]; fraction relative to the maximum activity determined for formoterol in each experiment, H292 cells, cAMP) | Intrinsic Activity [3]
1 | O=c1[nH]c2c(O)ccc([C@@H](O)CNCCc3cccc(CN4CCCC4)c3)c2s1 [Example 51, 4-Hydroxy-7-{1R-hydroxy-2-[2-(3-pyrrolidin-1-ylmethyl-phenyl)-ethylamino]-ethyl}-3H-benzothiazol-2-one bis-hydrochloride salt] | 1260 nM | 1000 nM | 1 nM | 1.1 | –
2 | O=c1[nH]c2c(O)ccc([C@@H](O)CNCCc3cccc(CNCc4ccccn4)c3)c2s1 [Example 61, 4-Hydroxy-7-{1R-hydroxy-2-[2-(3-{[(pyridin-2-ylmethyl)-amino]-methyl}-phenyl)-ethylamino]-ethyl}-3H-benzothiazol-2-one bis-hydrochloride salt] | 79.4 nM | 316 nM | – | – | 0.9
3 | COc1ccccc1CNCc1cccc(CCNC[C@H](O)c2ccc(O)c3[nH]c(=O)sc23)c1 [Example 36, 4-Hydroxy-7-[1R-hydroxy-2-(2-{3-[(2-methoxy-benzylamino)-methyl]-phenyl}-ethylamino)-ethyl]-3H-benzothiazol-2-one bis-trifluoroacetate salt] | 50.1 nM | 200 nM | – | – | 0.8
